From patent publication US20210261539A1, “COMPOUND HAVING BET INHIBITORY ACTIVITY AND PREPARATION METHOD AND USE THEREFOR” (Shanghai Haihe Pharmaceutical Co., Ltd., priority 2018, published 2021) come the findings set out here.

The target in this test is T1, BRD4 BD1 (Homo sapiens, UniProt O60885).
T1 construct: Protein BRD4 BD1 used in the assay was purchased from Active Motif (cat. 31380); purchased Active Motif 31380
In words: HTRF in vitro enzyme activity assay, inhibition of BRD4 BD1 binding to acetylated H4 peptide. As to conditions: IC50 values of the compounds against BRD4 BD1 binding; class symbols A/B/C. The protocol: Effect Examples: In Vitro Enzyme Activity Assay
Half inhibitory activity (IC50) of the compounds of the invention against the bromodomain protein BRD4 BD1 was determined in the present Examples.
The compounds of the invention were tested for inhibitory activity against BRD4 BD1 with Homogeneous Time-Resolved Fluorescence (HTRF).
2. Reagents, Consumable Materials and Instruments:
Protein BRD4 BD1 used in the assay was purchased from Active Motif (cat. 31380); streptavidin XL-665 (#610SAXLA) and EPIgeneous Binding Domain Kit A (#62BDAPEG) were both purchased from Cisbio Bioassays; [Lys(5,8,12,16)Ac] H4(1-21)-biotin (#64989), [Lys(5,8,12,16)Ac]H4(1-25) were available from Anaspec; OTX015 and ABBV-075 were purchased from Selleckchem Co. The 384-well ProxiPlate (#6008280) was purchased from Perkinelmer Co. The Laboratory microplate reader (Envision 2104) was available from PerkinElmer Co. The water used in the assay was Millipore-Q pure water.
3. Formulation of the Compound
10 mM DMSO stock solution of the test compound was diluted to 1 mM in DMSO, and then diluted 10-fold in Binding Domain dilution buffer (purchased from Cisbio Bioassays) for use (DMSO concentration in the final system was 0.1%), including 5 concentrations in 1:5 gradient.
4. Assay Protocol: 1 Batch, 2 Repeats
1) 5 μL of test compound was transferred to 45 μL Binding Domain dilution buffer.
2) 2 μL of 1× compound (4 μL Binding Domain dilution buffer: positive control; 6 μL enzyme buffer (purchased from Cisbio Bioassays): negative control) was transferred to a reaction plate.
3) 4 μL of 5×BRD 4(1) was added to the reaction plate (30 nM in the final system).
4) 4 μL of 5×[Lys(5,8,12,16)Ac] H4(1-21)-biotin was added to the reaction plate, and the plate was covered with a film and incubated at 37° C. for 30 min.
5) A detection mixture of SA-XL665 (2×) and anti-H3K9me0-Eu(K) (2×) was prepared in detection buffer (purchased from Cisbio Bioassays).
6) 10 μL of detection mixture (2×) was added to each well, incubated at RT for 3 h. The mp value was read by microplate reader Envision with the following parameters: […]
With `C[C@@H]1C(=O)N(C)c2cnc(N3C(=O)c4c(cccc4C(C)(C)O)C3c3ccc(F)cc3)nc2N1C` (single isomer, unassigned) [Example A96-P1], the half-inhibitory concentration (IC50) is ≤ 10 nM.

Consider `CC1C(=O)N(C)c2cnc(-n3c(=O)c4ccccc4n3-c3ccc(Cl)cc3)cc2N1C1CC1` (centres unmarked) [Example A29-P4, 7-(1-(4-chlorophenyl)-3-oxo-1H-indazol-2(3H)-yl)-1-cyclopropyl-2,4-dimethyl-1,2-dihydropyrido [3 4-b]pyrazin-3(4H)-one], for which the IC50 is ≤ 10 nM. Under `C[C@@H]1C(=O)N(C)c2cnc(N3C(=O)c4ccccc4C3c3ccc(F)nc3)nc2N1C` (single isomer, unassigned) [Example A91-P2] stands ≤ 10 nM. Under `CC1C(=O)N(C)c2ccc(N3C(=O)c4ccccc4C3c3cccnc3)nc2N1C1COC1` (centres unmarked) [Example A54-P4, 1,3-dimethyl-4-(oxetan-3-yl)-6-(1-oxo-3-(pyridin-3-yl)isoindolin-2-yl)-3,4-dihydropyrido [2,3-b]pyrazin-2(1H)-one] stands ≤ 10 nM. Under `CC1C(=O)N(C)c2ccc(N3C(=O)c4ccccc4C3c3ccc(F)nc3)nc2N1C1CC1` (single isomer, unassigned) [Example A67-P3, 4-cyclopropyl-1,3-dimethyl-6-(1-oxo-3-(6-fluoropyridin-3-yl)isoindolin-2-yl)-3,4-dihydropyrido[3,2-b]pyrazin-2-(1H)-one] stands ≤ 10 nM. Consider `CNC(=O)c1cccc2c1C(=O)N(c1ccc3c(n1)N(C)C(C)C(=O)N3C)C2c1ccccc1` (single isomer, unassigned) [Example A88-P4, N-methyl-3-oxo-1-phenyl-2-(1,3,4-trimethyl-2-oxo-1,2,3,4-tetrahydropyrido[2,3-b]pyrazin-6-yl)isoindoline-4-carboxamide], for which the IC50 is ≤ 10 nM. Under `CC1C(=O)N(C)c2c(F)cc(N3C(=O)c4ccccc4C3c3cccnc3)cc2N1C1CC1` (single isomer, unassigned) [Example A71-P4, 4-cyclopropyl-8-fluoro-1,3-dimethyl-6-(1-oxo-3-(pyridin-3-yl)isoindolin-2-yl)-3,4-dihydroquinoxalin-2(1H)-one] stands ≤ 10 nM; under `CC1C(=O)N(C)c2ccc(N3C(=O)CCC3c3cccnc3)nc2N1C1CC1` (single isomer, unassigned) [Example A14-P1, 4-cyclopropyl-1,3-dimethyl-6-(2-oxo-5-(pyridin-3-yl)pyrrolidin-1-yl)-3,4-dihydropyrido[2,3-b]pyrazin-2(1H)-one], ≤ 10 nM; under `CC1C(=O)N(C)c2ccc(N3C(=O)c4ccccc4C3c3cccnc3)nc2N1C1CC1` (centres unmarked) [Example A36-P3, 4-cyclopropyl-1,3-dimethyl-6-(1-oxo-3-(pyridin-3-yl)isoindolin-2-yl)-3,4-dihydropyrido [3,2-b]pyrazin-2-(1H)-one], ≤ 10 nM. Compound `C[C@H]1Oc2nc(N3C(=O)c4c([S+](C)[O-])cccc4C3(O)c3cccnc3)ccc2N(C)C1=O` (single isomer, unassigned) [Example A129-P3] yielded a concentration for half-maximal inhibition (IC50) of 10 to 100 nM. Under `C[C@@H]1C(=O)N(C)c2cnc(N3C(=O)c4c(cccc4S(C)(=O)=O)C3(O)c3cccnc3)nc2N1C` (stereo partly drawn) [Example A104-P3, (7R)-2-(1-hydroxy-4-(methylsulfonyl)-3-oxo-1-(pyridin-3-yl)isoindolin-2-yl)-5,7,8-trimethyl-7,8-dihydropteridin-6(5H)-one] stands ≤ 10 nM; under `CC1C(=O)N(C)c2ccc(N3C(=O)c4ccccc4C3c3ccccn3)nc2N1C1CC1` (single isomer, unassigned) [Example A69-P3, 4-cyclopropyl-1,3-dimethyl-6-(1-oxo-3-(pyridin-2-yl)isoindolin-2-yl)-3,4-dihydropyrido[2,3-b]pyrazin-2(1H)-one], ≤ 10 nM.

Regarding `CC1C(=O)N(C)c2ccc(N3C(=O)CCC3c3ccc(F)cc3)nc2N1C1CC1` (single isomer, unassigned) [Example A22-P1, 4-cyclopropyl-6-(2-(4-fluorophenyl)-5-oxopyrrolidin-1-yl)-1,3-dimethyl-3,4-dihydropyrido[2,3-b]pyrazin-2(1H)-one], the IC50 was 10 to 100 nM.

With `CC1C(=O)N(C)c2cnc(N3C(=O)c4ccccc4C3c3ccc(F)nc3)nc2N1C1CC1` (centres unmarked) [A99-P3/P4, 8-cyclopropyl-2-(1-(6-fluoropyridin-3-yl)-3-oxoisoindol-2-yl)-5,7-dimethyl-7,8-dihydropteridin-6(5H)-one], the IC50 was ≤ 10 nM. Under `CC1C(=O)N(C)c2ccc(N3C(=O)c4cc(C(=O)O)ccc4C3c3ccc(F)cc3)nc2N1C1CC1` (centres unmarked) [A77-P1/P4, 2-(4-cyclopropyl-1,3-dimethyl-2-oxo-1,2,3,4-tetrahydropyrido[2,3-b]pyrazin-6-yl)-1-(4-fluorophenyl)-3-oxoisoindoline-5-carboxylic acid] stands ≤ 10 nM.

Take `CC1C(=O)N(C)c2c(F)cc(N3C(=O)CCC3c3ccc(Cl)cc3)cc2N1C1CC1` (single isomer, unassigned) [Example A15-P1-1, 6-(2-(4-chlorophenyl)-5-oxopyrrolidin-1-yl)-4-cyclopropyl-8-fluoro-1,3-dimethyl-3,4-dihydroquinoxalin-2(1H)-one]: the IC50 was ≤ 10 nM. Under `CSc1cccc2c1C(=O)N(c1ccc3c(n1)N(C)[C@H](C)C(=O)N3C)C2c1cccnc1` (mixture of isomers) [Example A61, (3R)-1,3,4-trimethyl-6-(4-(methylthio)-3-oxo-1-(pyridin-3-yl)isoindolin-2-yl)-3,4-dihydropyrido[2,3-b]pyrazin-2(1H)-one] stands ≤ 10 nM; under `CC1C(=O)N(C)c2cnc(N3C(=O)c4ccccc4C3c3ccccc3)nc2N1C1CC1` (single isomer, unassigned) [Example A92-P4, 8-cyclopropyl-5,7-dimethyl-2-(1-oxo-3-phenylisoindolin-2-yl)-7,8-dihydropteridin-6(5H)-one], ≤ 10 nM. Under `CC1C(=O)N(C)c2ccc(N3C(=O)c4ccccc4C3c3ccc(F)cc3)nc2N1C1CCCC1` (racemic) [Example A38, 4-cyclopentyl-6-(1-(4-fluorophenyl)-3-oxoisoindolin-2-yl)-1,3-dimethyl-3,4-dihydropyrido [2,3-b]pyrazin-2(1H)-one] stands 10 to 100 nM; under `CC1C(=O)N(C)c2ccc(N3C(=O)c4ccccc4C3c3ccc(Cl)cc3)nc2N1Cc1ccccc1` (racemic) [Example A35, 4-benzyl-6-(1-(4-chlorophenyl)-3-oxoisoindolin-2-yl)-1,3-dimethyl-3,4-dihydropyrido [2,3-b]pyrazin-2(1H)-one], 10 to 100 nM.

In the case of `CC1C(=O)N(C)c2ccc(N3C(=O)c4c(cccc4C(C)(C)O)C3c3ccc(F)cc3)nc2N1C1CC1` (single isomer, unassigned) [Example A79-P4, 4-cyclopropyl-6-(1-(4-fluorophenyl)-4-(2-hydroxyprop-2-yl)-3-oxoisoindolin-2-yl)-1,3-dimethyl-3,4-dihydropyrido[2,3-b]pyrazin-2(1H)-one], the IC50 was ≤ 10 nM. The same measure for `CC1C(=O)N(C)c2cnc(N3C(=O)c4ccccc4C3c3cccnc3)nc2N1C1CC1` (single isomer, unassigned) [Example A98-P3, 8-cyclopropyl-5,7-dimethyl-2-(1-oxo-3-(pyridin-3-yl)isoindolin-2-yl)-7,8-dihydropteridin-6(5H)-one]: ≤ 10 nM; for `CC1C(=O)N(C)c2ccc(N3C(=O)c4ccccc4C3c3ccc(F)cc3)nc2N1C1CCCC1` (racemic) [Example A38-P2, 4-cyclopentyl-6-(1-(4-fluorophenyl)-3-oxoisoindolin-2-yl)-1,3-dimethyl-3,4-dihydropyrido [2,3-b]pyrazin-2(1H)-one]: ≤ 10 nM. Take `C[C@@H]1C(=O)N(C)c2cnc(N3C(=O)c4c(cccc4C(C)(C)O)C3c3ccc(F)cc3)nc2N1C1CC1` (stereo partly drawn) [Example A94-P4, (7R)-8-cyclopropyl-2-(3-oxo-1-(4-fluorophenyl)-4-(2-hydroxyprop-2-yl)isoindolin-2-yl)-5,7-dimethyl-7,8-dihydropteridin-6(5H)-one]: the IC50 was ≤ 10 nM.

As for `C[C@@H]1C(=O)N(C)c2ccc(N3C(=O)c4ccccc4C3c3cccnc3)nc2N1CCF` (single isomer, unassigned) [Example A55-P2, 4-(2-fluoroethyl)-1,3-dimethyl-6-(1-oxo-3-(pyridin-3-yl)isoindolin-2-yl)-3,4-dihydropyrido [2,3-b]pyrazin-2(1H)-one], the IC50 is ≤ 10 nM. The same measure for `CC1C(=O)N(C)c2ccc(-n3c(=O)c4ccccc4n3-c3ccc(Cl)cc3)nc2N1C1COC1` (centres unmarked) [Example A26-P2, 6-(1-(4-chlorophenyl)-3-oxo-1,3-dihydro-2H-indazol-2-yl)-1,3-dimethyl-4-(oxetan-3-yl)-3,4-dihydropyrido [2,3-b]pyrazin-2(1H)-one]: ≤ 10 nM.
